Tests used:
HCV NS3-NS4A protease = molecular target: T1, HCV NS3-NS4A protease (Hepatitis C virus genotype 1b, UniProt P26663); test: HCV Protease Assay (SensoLyte 620 HCV Protease Assay kit); assay type: biochemical; conditions: 1.2 nM HCV NS3-NS4A protease, 60 min at room temperature, 5% DMSO
T1 construct: made in house
Summary of the method: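 Protease at 1.2 nM, run with the SensoLyte 620 fluorogenic kit under supplier conditions, with compounds at several concentrations in buffer with 5% final DMSO. Reactions ran 60 min at room temperature before fluorescence reading; IC50 from four-parameter sigmoidal fit of percent inhibition.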

[1] = system: HCV genotype 2a infectious virus; test: HCV genotype 2a infectious virus assay; assay type: cell-based, HCV (strain JFH-1; genotype 2a); conditions: Hepatitis C virus
Procedure: (§1) Compounds were tested in a HCV genotype 2a infectious virus assay and the results are summarized in Table 7, wherein A represents a value smaller than 1 μM, and B represents a value between 1 μM to 10 μM, C represents a value between 10 μM to 75 μM and D represents a value greater than 75 μM.
The HCV in vitro infection core ELISA assay measures the ability of a test compound to inhibit replication of an infectious HCV (strain JFH-1; genotype 2a) in cell culture. […] We have developed this model for determining the efficacy of antiviral compounds against an infectious virus in vitro using HCV producing cells (HPC), a proprietary Huh-7-derived cell sublineage capable of propagating the JFH-1 HCV virus. The readout of the assay is quantification of HCV core protein by ELISA 5 days post infection with JFH-1 virus and treatment with a test compound.
Ninety-six-well Corning Costar plates were seeded with HPC cells at a density of 3.0×10^3 cells per well in 50 μL of Huh-7 media. Compound stock solutions were made up freshly in Huh-7 media (DMEM (containing glucose, L-glutamine and sodium pyruvate), 10% FBS, 100 IU/mL penicillin, 100 μg/mL streptomycin, 2 mM GlutaMAX, 1% MEM non-essential amino acids) as 2× stock. Seven additional 3-fold drug dilutions were prepared from the 2× stocks in Huh-7 media. At least 4 hours after HPC cells were seeded, the media in the 96-well culture plates was aspirated and 50 μL of each drug dilution and 50 μL of JFH-1 HCV was added to each well.
At 16 hrs post treatment and infection, the virus inoculum was removed by aspiration. The cultures were treated at the same final concentrations of drug diluted to 1× in Huh-7 media to a final volume of 200 μL. Cells were incubated in the presence of drug for 4 additional days at 37° C./5% CO2.
Media was removed from the plates by aspiration. Cells were fixed with 250 μL 1:1 acetone:methanol for 90 seconds, washed once in PBS and then three times with 1×KPL wash solution. The assay plates were then blocked with 150 μL/well 10% FBS-TNE (50 mM Tris-HCl (pH 7.5; Sigma), 100 mM NaCl, 1 mM EDTA with 10% FBS) for 1 hr at room temperature. Cells were washed three times with 1×KPL wash solution and incubated with 100 μL/well anti-hepatitis C core mAb (1 mg/mL stock diluted 1:500 in 10% FBS-TNE) for 2 hours at 37° C. Cells were washed three times with 1×KPL wash solution and incubated with 100 μL/well HRP-goat anti-mouse antibody (diluted 1:2,500 in 10% FBS-TNE) for 1 hr at 37° C.
OPD solution was prepared using 1 OPD tablet+12 mL citrate/phosphate buffer (16 mM citric acid, 27 mM Na2HPO4) plus 5 μL 30% H2O2 per plate. Cells were washed three times with 1×KPL wash solution and developed with 100 μL/well OPD solution for 30 minutes in the dark at room temperature. The reaction was stopped with 100 μL/well of 2NH2SO4, and absorbance measured at A490 nm in a Victor^3 V 1420 multilabel counter (Perkin Elmer). The EC50 values for each compound were calculated from dose response curves from the resulting best-fit equations determined by Microsoft Excel and XLfit 4.1 software. The negative control for inhibition of virus replication was untreated HPC cells infected with the JFH-1 HCV virus strain. The negative ELISA control was untreated, uninfected HPC cells. The positive ELISA control was untreated HPC cells infected the JFH-1 HCV virus strain.

[2] = from C=CCCCCN(C)C(=O)[C@@H]1C[C@H](Oc2cc(-c3nc(C(C)C)cs3)nc3c(Cl)c(OC)ccc23)CN1C(=O)N[C@]1(C(=O)NS(=O)(=O)C2CC2)C[C@H]1C=C; rcm bond; 14-membered ring; Zhan 1B (2%); DCE; 5.0 mM; 75.0 °C; 0.75 h
mutant protease D168A = test: Resistance profile, mutant protease D168A; assay type: biochemical, HCV; conditions: ratio of inhibitory activity against mutant enzyme over non-mutant enzyme
Procedure: (§2) General procedure: Measurement of the inhibitory effect of compounds on HCV protease activity was performed with the SensoLyte™ 620 HCV Protease Assay kit from AnaSpec, Inc. (San Jose, Calif.) under conditions described by the supplier using 1.2 nM HCV NS3-NS4A protease, which was obtained according to Taremi et al. (Protein Science, 1998, 7, 2143-2149). The compounds were tested at a variety of concentrations in assay buffer containing a final DMSO concentration of 5%. Reactions were allowed to proceed for 60 min at room temperature and fluorescence measurements were recorded with a Tecan Infinity Spectrofluorimeter. The IC50 values were determined from the percent inhibition versus concentration data using a sigmoidal non-linear regression analysis based on four parameters with Tecan Magellan software.
(§3) Compounds were evaluated against three mutant proteases R155Q, A156S, and D168A, as summarized in Table 8, wherein A represents a value smaller than 1, and B represents a value between 1 to 10, and C represents a value greater than 10. The fold of change in inhibitory activity was determined by measuring the ratio of the inhibitory activity of a compound against a mutant enzyme over the inhibitory activity of the same compound against non-mutant enzyme. The inhibitory activity was determined using the procedure as described in Example 31.

mutant protease R155Q = test: Resistance profile, mutant protease R155Q; assay type: biochemical, HCV; conditions: ratio of inhibitory activity against mutant enzyme over non-mutant enzyme
Procedure: as §2, §3

[3] = Cytotoxicity (CC50) in the genotype 1b replicon assay; assay type: cell-based; conditions: human, GS4.1 cells; genotype 1b replicon assay as described in Example 32
Procedure: (§4) For cytotoxicity evaluation, GS4.1 cells were treated with compounds as described above and cellular viability was monitored using the Cell Titer 96 AQueous One Solution Cell Proliferation Assay (Promega). CC50 values were determined from the % cytotoxicity versus concentration data with Tecan Magellan software as described above.
as §1, with “a” for “a HCV”, “1b replicon” for “2a infectious virus”, “assay as described in Example 32” for “assay”, “6,” for “7,”

[4] = Cytotoxicity evaluation (Cell Titer 96 AQueous One Solution Cell Proliferation Assay); assay type: cell-based; conditions: human; GS4.1 cells, cellular viability
Procedure: as §4

T1 sequence (P26663 1027-1208): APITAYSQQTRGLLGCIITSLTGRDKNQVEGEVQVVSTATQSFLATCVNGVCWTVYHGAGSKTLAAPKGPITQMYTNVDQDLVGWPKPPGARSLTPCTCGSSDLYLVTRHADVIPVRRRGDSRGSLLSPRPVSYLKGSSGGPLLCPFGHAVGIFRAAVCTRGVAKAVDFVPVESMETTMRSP

Which results are given for COc1ccc2c(O[C@H]3C[C@H]4C(=O)N(C)CCCC/C=C\[C@@H]5C[C@@]5(C(=O)NS(=O)(=O)C5CC5)NC(=O)N4C3)cc(-c3nc(C(C)C)cs3)nc2c1Cl [Compound 62d, (Z)-(4R,6S,15S,17S)-[17-[8-chloro-7-methoxy-2-(4-isopropylthiazol-2-yl)quinolin-4-yloxy]-13-N-methyl-2,14-dioxo-1,3,13-triazatricyclo[13.3.0.0]octadec-7-en-4-yl]carbonyl(cyclopropyl)sulfonamide]?
IC50 (HCV NS3-NS4A protease): < 1 µM; EC50 [1]: < 1 µM; ring closure, isolated yield [2]: 63%; Fold-Change D168A (mutant protease D168A): C (C represents a value greater than 10); Fold-Change R155Q (mutant protease R155Q): A (A represents a value smaller than 1); CC50 [3]: 10 to 75 µM; CC50 [4]: > 75 µM

Source: US8003659B2, “Macrocyclic serine protease inhibitors” (Indenix Pharmaceuticals, Inc., priority 2008, dated 2011)
